Assay results as given in US20160102074A1, “SUBSTITUTED AMIDE COMPOUNDS” (PFIZER INC., priority 2014, published 2016).

Assay: Human intestinal S9 fraction in vitro stability assay (HInt)
Assay type: in vitro ADME
Conditions: human intestinal S9 0.1 mg/mL, 1 μM test compound, pH 7.4, 37° C., substrate depletion
Text: In particular, the human intestinal S9 fraction in vitro stability assay (HInt) and human hepatocyte in vitro liver metabolism assay (HHep) provide important information regarding the clearance and metabolic activation of these compounds. The human intestinal S9 fraction in vitro stability assay provides a surrogate measure of compound metabolism as it travels across the gut wall; compounds with low CLint values more likely to enter the portal vein and be exposed to the liver. Likewise, the human hepatocyte in vitro liver metabolism assay provides a surrogate measure of compound metabolism when exposed to liver; compounds with high CLint values are more likely to be metabolically activated. For compounds such as prodrugs that release an active species on metabolic activation, high CLint values in human hepatocytes are desirable. Active compounds released in this way inhibit PCSK9 and show improved atherosclerotic properties by increased exposure of the active metabolite in the liver.
Human Intestinal S9 Fraction In Vitro Stability Assay (Hint)
In vitro stability of test compounds in human intestinal S9 fraction was determined by a substrate depletion approach. Frozen PMSF-free human intestinal S9 (BD Gentest) was thawed on wet ice and diluted to the test concentration of 0.1 mg/mL in 100 mM potassium phosphate buffer pH 7.4. Aliquots of diluted intestinal S9 (495 μL, n=2) were added to tubes in a dry heat bath and pre-warmed for 5 min at 37° C. Test compounds were dissolved in DMSO at 30 mM, ordered from the TekCel at 10 mM, and further diluted to 0.1 mM in DMSO. To initiate the reaction, 5 μL of 0.1 mM DMSO stock solution was added to the pre-warmed intestinal S9. The final test compound concentration in the incubation was 1 μM. At each time point (0.25, 5, 10, 20, 40, and 60 min) a 50 μL sample of incubate was removed and transferred to a plate containing 200 μL acetonitrile with internal standard (2 ng/mL terfenadine). After collection of the final time point, sample plates were capped, vortexed, and centrifuged for 5 minutes at approximately 2000×g. 150 μL of supernatant was removed and transferred to a clean storage plate for direct LC-MS/MS analysis. LC-MS/MS analysis was conducted on a Triple Quad 5500 (AB Sciex) with two LC-20AD pumps and CBM-20 controller (Shimadzu) and CTC PAL autosampler (LEAP Technologies). The MS was operated in multiple reaction monitoring mode with simultaneous monitoring for test compound and internal standard. 5 μL of sample was injected on a Kinetex C18 30×2.1 mm column (Phenomenex) and eluted at 0.5 ml/min under the following conditions, where solvent A was water containing 0.1% formic acid and solvent B was acetonitrile containing 0.1% formic acid: hold initial conditions 90% A and 10% B for 0.8 min, ramp to 30% A and 70% B over 1 min, step to 5% A and 95% B over 0.05 min, hold at 5% A and 95% B for 0.15 min, return to initial conditions over 0.1 min, and hold for 0.4 min. Peak areas of test compound and internal standard were quantitated using Analyst 1.5 (AB Sciex) and the ratios of test compound peak area to internal standard peak area (area ratio) were calculated. The natural log of area ratio was plotted versus time and the portion of the curve representing the initial linear rate of test compound depletion was fit using linear regression (IDBS E-Workbook 9.4). The slope of this line was converted to half-life (t1/2=−LN2/slope). Half-life was used to calculate intrinsic apparent clearance (CLint=LN2/(t1/2*(mg protein/ml incubation))).

| SMILES | microsomal CLint at 1 μM |
| --- | --- |
| CCOC(=O)O[C@@H](C)n1nnnc1-c1c(-c2ccc(C(=O)N(c3ncccc3C)[C@@H]3CCCNC3)cc2F)cnn1C [Example 8, ethyl (S)-1-{5-[4-(4-{(3-methylpyridin-2-yl)[(3R)-piperidin-3-yl]carbamoyl}-2-fluorophenyl)-1-methyl-1H-pyrazol-5-yl]-1H-tetrazol-1-yl}ethyl carbonate] | 116 µL/min/mg |
| CCOC(=O)O[C@@H](C)n1nnnc1-c1c(-c2ccc(C(=O)N(c3ncccc3C)[C@@H]3CCCNC3)cc2)cnn1C [Example 5a, ethyl (S)-1-{5-[1-methyl-4-(4-{(3-methylpyridin-2-yl)[(3R)-piperidin-3-yl]carbamoyl}phenyl)-1H-pyrazol-5-yl]-1H-tetrazol-1-yl}ethyl carbonate] | < 57.8 µL/min/mg |
| CCOC(=O)O[C@@H](C)n1nnnc1-c1c(-c2ccc(C(=O)N(c3ncccc3Cl)[C@@H]3CCCNC3)nc2)cnn1C [Example 10, ethyl (S)-1-{5-[4-(6-{(3-chloropyridin-2-yl)[(3R)-piperidin-3-yl]carbamoyl}pyridin-3-yl)-1-methyl-1H-pyrazol-5-yl]-1H-tetrazol-1-yl}ethyl carbonate] | < 57.8 µL/min/mg |
| CCOC(=O)O[C@@H](C)n1nnnc1-c1c(-c2ccc(C(=O)N(c3ncccc3C)[C@@H]3CCCNC3)nc2)cnn1C [Example 9, ethyl (S)-1-{5-[1-methyl-4-(6-{(3-methylpyridin-2-yl)[(3R)-piperidin-3-yl]carbamoyl}pyridin-3-yl)-1H-pyrazol-5-yl]-1H-tetrazol-1-yl}ethyl carbonate] | < 57.8 µL/min/mg |
| CCOC(=O)O[C@@H](C)n1nnnc1-c1c(-c2ccc(C(=O)N(c3ncccc3Cl)[C@@H]3CCCNC3)cc2)cnn1C [Example 6, ethyl (S)-1-{5-[1-methyl-4-(4-{(3-chloropyridin-2-yl)[(3R)-piperidin-3-yl]carbamoyl}phenyl)-1H-pyrazol-5-yl]-1H-tetrazol-1-yl}ethyl carbonate] | < 57.8 µL/min/mg |
| CCOC(=O)O[C@H](C)n1nnnc1-c1c(-c2ccc(C(=O)N(c3ncccc3C)[C@@H]3CCCNC3)cc2)cnn1C [Example 5b, ethyl (R)-1-{5-[1-methyl-4-(4-{(3-methylpyridin-2-yl)[(3R)-piperidin-3-yl]carbamoyl}phenyl)-1H-pyrazol-5-yl]-1H-tetrazol-1-yl}ethyl carbonate] | 86.9 µL/min/mg |
| CCOC(=O)O[C@H](C)n1nnnc1-c1c(-c2ccc(C(=O)N(c3ncccc3Cl)[C@@H]3CCCNC3)cc2F)cnn1C [Example 11, ethyl (R)-1-{5-[4-(4-{(3-chloropyridin-2-yl)[(3R)-piperidin-3-yl]carbamoyl}-2-fluorophenyl)-1-methyl-1H-pyrazol-5-yl]-1H-tetrazol-1-yl}ethyl carbonate] | 620 µL/min/mg |
| CCOC(=O)O[C@@H](C)n1nnnc1-c1c(-c2ccc(C(=O)N(c3ncccc3Cl)[C@@H]3CCCNC3)cc2F)cnn1C [Example 7, ethyl (S)-1-{5-[4-(4-{(3-chloropyridin-2-yl)[(3R)-piperidin-3-yl]carbamoyl}-2-fluorophenyl)-1-methyl-1H-pyrazol-5-yl]-1H-tetrazol-1-yl}ethyl carbonate] | < 82.9 µL/min/mg |
